Source: patent US6392055B1, “Synthesis and biological evaluation of analogs of the antimitotic marine natural product curacin A” (The University of Pittsburgh, priority 2000, dated 2002)
Where two headings read alike, the source gives them in different places.

Tests used:
[1] = test system: tubulin (colchicine site); assay: Inhibition of [3H]colchicine binding to tubulin; set-up: species or system bovine; settings: for Percent Colchicine Binding Inhibition (CBI), 5 μM / % CBI 5 μM, (30° C.) / % CBI 5 μM, 37° C.: 5 μM compound; for Percent Colchicine Binding Inhibition (CBI), 50 μM / % CBI 50 μM, (30° C.) / % CBI 50 μM, 37° C.: 50 μM compound; for Percent Colchicine Binding Inhibition (CBI), 1 μM: 1 μM compound; for IC50: 5 μM [3H]colchicine, 1 μM tubulin; for % CBI 5 μM, (30° C.) / % CBI 50 μM, (30° C.): 30° C. (values in parentheses)
Method: Assays to determine whether 15mix-17mix inhibited binding of [^3H]colchicine to tubulin at both 30° C. and 37° C. were performed. This was accomplished using methods described previously. Kang, G.-J.; Getahun, Z.; Muzaffar, A.; Brossi, A.; Hamel, E. J. Biol. Chem. 1990, 265, 10255; Verdier-Pinard, P.; Lai, J.-Y.; Yoo, H.-D.; Yu, J.; Marquez, B.; Nagle, D. G.; Nambu, M.; White, J. D.; Falck, J. R.; Gerwick, W. H.; Day, B. W.; Hamel, E. Mol. Pharmacol. 1998, 53, 62. Briefly, 5 μM [^3H]colchicine (2.3 TBq/mmol), drug (1, 5, 10, 50, or 250 μM), or vehicle (DMSO, 5% v/v) were incubated at 30° C. for 15 minutes or at 37° C. for 10 minutes with 1 μM tubulin in the presence of 1 M monosodium glutamate, 0.1 M glucose-1-phosphate, 1 mM MgCl2, 1 mM GTP, and 0.5 mg/mL bovine serum albumin. The solutions were filtered through two stacks of DEAE-cellulose filters and the radioactivity in the filtrate was determined by scintillation spectrometry. Each series of determinations included positive controls of 1, 5, and/or 50 μM curacin A.

[2] = test system: isolated bovine brain tubulin; assay: Inhibition of GTP/glutamate-induced tubulin polymerization (turbidimetric, 30° C.); assay type: biochemical; settings: for Percent Tubulin Polymerization Inhibition (TPI), 5 μM / % TPI 5 μM: 5 μM compound; for IC50: read-out: 50% Tubulin Polymerization Inhibition Concentration (TPI) IC50, 30° C., 10 μM tubulin
MDA-MB231 cells = assay: Growth inhibition of breast carcinoma cells (MTS); assay type: cell-based, human
PC-3 cells = assay: Growth inhibition of prostate carcinoma cells (MTS); assay type: cell-based, human
2008 cells = assay: Growth inhibition of ovarian carcinoma cells (MTS); assay type: cell-based, human
[3] = 96 h, Table II prints no unit, read-out: GI50 MDA 96 h
[4] = read-out: GI50 MDA 48 h, 48 h, Table II prints no unit
[5] = 96 h, Table II prints no unit, read-out: GI50 PC3 96 h
[6] = read-out: GI50 PC3 48 h, 48 h, Table II prints no unit
[7] = 96 h, Table II prints no unit, read-out: GI50 2008 96 h
[8] = read-out: GI50 2008 48 h, 48 h, Table II prints no unit
[9] = incubation at 30° C. for 15 minutes, read-out: 50% Colchicine Binding Inhibitory Concentration (CBI), 30° C.
[10] = incubation at 37° C. for 10 minutes, read-out: 50% Colchicine Binding Inhibitory Concentration (CBI), 37° C.
[11] = Homo sapiens, MDA-MB-231, 48 h, read-out: GI50 MDA-MB231 (48 h)
[12] = Homo sapiens, PC-3, 48 h, read-out: GI50 PC-3 (48 h)
[13] = Homo sapiens, Ovarian carcinoma cell, 48 h, read-out: GI50 2008 (48 h)
[14] = 96 h, read-out: GI50 MDA-MB231 (breast) 96 h
[15] = read-out: GI50 MDA-MB231 (breast) 48 h, 48 h
[16] = 96 h, read-out: GI50 PC3 (prostate) 96 h
[17] = read-out: GI50 PC3 (prostate) 48 h, 48 h
[18] = 96 h, read-out: GI50 2008 (ovarian) 96 h
[19] = read-out: GI50 2008 (ovarian) 48 h, 48 h

SMILES: COc1cc(/C=C\CC/C=C/C=C(\C)CCC(O)c2ccco2)cc(OC)c1OC (stereo not shown) [Compound 19CR1]
- Percent Colchicine Binding Inhibition (CBI), 5 μM [1]: 30.3 ± 7.5 %
- Percent Colchicine Binding Inhibition (CBI), 50 μM [1]: 59.7 ± 1.6 %
- Percent Tubulin Polymerization Inhibition (TPI), 5 μM [2]: 94.4%
- GI50 (MDA-MB231 cells; [3]): 0.79 ± 0.167 µM
- GI50 (MDA-MB231 cells; [4]): 0.288 ± 0.166 µM
- GI50 (PC-3 cells; [5]): 7.73 ± 1.22 µM
- GI50 (PC-3 cells; [6]): 7.99 ± 3.52 µM
- GI50 (2008 cells; [7]): 2.53 ± 0.64 µM
- GI50 (2008 cells; [8]): 2.72 ± 0.96 µM

SMILES: COc1ccc(/C=C\CC/C=C/C=C(\C)CCC(O)c2ccccc2OC)c(OC)c1 (stereo not shown) [Compound 19AR5]
- Percent Colchicine Binding Inhibition (CBI), 1 μM [1]: −3.4 ± 3.2%
- Percent Colchicine Binding Inhibition (CBI), 5 μM [1]: −17.4 ± 7.9 %
- Percent Colchicine Binding Inhibition (CBI), 50 μM [1]: −26.1 ± 11.5 %
- Percent Tubulin Polymerization Inhibition (TPI), 5 μM [2]: 34.2%
- GI50 (MDA-MB231 cells; [3]): 15.3 ± 9.8 µM
- GI50 (MDA-MB231 cells; [4]): > 50 µM
- GI50 (PC-3 cells; [5]): > 50 µM
- GI50 (PC-3 cells; [6]): > 50 µM
- GI50 (2008 cells; [7]): 24.2 ± 3.9 µM
- GI50 (2008 cells; [8]): 30.8 ± 8.7 µM

SMILES: COc1ccccc1C(O)CCC(C)=CC=CCCC=Cc1cc(OC)c(OC)c(OC)c1 (stereo not shown) [Compound 17d, (4E,6E,10Z)-11-(3,4,5-Trimethoxyphenyl)-4-methyl-1-(2-methoxy-phenyl)-2-ylundeca-4,6,10-trien-1-ol]
- IC50 [1, 9]: 9 ± 5 µM
- IC50 [1, 10]: 9 ± 4 µM
- IC50 [2]: 1.2 µM
- GI50 (MDA-MB231 cells; [11]): 0.34 ± 0.03 µM
- GI50 (PC-3 cells; [12]): 0.62 ± 0.2 µM
- GI50 (2008 cells; [13]): 0.33 ± 0.02 µM

SMILES: C=CCC(CCC(C)=CC=CCCC=CC1COC(C=Cc2ccccc2)=N1)OC (stereo not shown) [JRC5]
- % CBI 5 μM, (30° C.) [1]: (9 ± 6) %
- % CBI 5 μM, 37° C. [1]: 1 ± 12%
- % CBI 50 μM, (30° C.) [1]: (−220 ± 16) %
- % CBI 50 μM, 37° C. [1]: −89 ± 7%
- % TPI 5 μM [2]: 29%
- GI50 (MDA-MB231 cells; [14]): 5.8 ± 3.6 µM
- GI50 (MDA-MB231 cells; [15]): 14 ± 3 µM
- GI50 (PC-3 cells; [16]): 28 ± 1 µM
- GI50 (PC-3 cells; [17]): 30 ± 6 µM
- GI50 (2008 cells; [18]): 23 ± 2 µM
- GI50 (2008 cells; [19]): 17 ± 3 µM

SMILES: COc1ccc(/C=C\CC/C=C/C=C(\C)CCC(O)c2cccs2)c(OC)c1 (stereo not shown) [Compound 19AR2]
- Percent Colchicine Binding Inhibition (CBI), 1 μM [1]: −0.7 ± 7.5%
- Percent Colchicine Binding Inhibition (CBI), 5 μM [1]: −2.7 ± 6.5%
- Percent Colchicine Binding Inhibition (CBI), 50 μM [1]: −31.7 ± 7.8 %
- Percent Tubulin Polymerization Inhibition (TPI), 5 μM [2]: 51.8%
- GI50 (MDA-MB231 cells; [3]): 7.18 ± 4.67 µM
- GI50 (MDA-MB231 cells; [4]): 24 ± 1.2 µM
- GI50 (PC-3 cells; [5]): 37.3 ± 6.5 µM
- GI50 (PC-3 cells; [6]): > 50 µM
- GI50 (2008 cells; [7]): 25.9 ± 2.1 µM
- GI50 (2008 cells; [8]): 23.8 ± 1.1 µM

SMILES: COc1ccc(OC)c(C(O)CCC(C)=CC=CCCC=Cc2cc(OC)c(OC)c(OC)c2)c1 (stereo not shown) [Compound 17f, (4E,6E,10Z)-11-(3,4,5-Trimethoxyphenyl)-4-methyl-1-(2,5-dimethoxy-phenyl)-2-ylundeca-4,6,10-trien-1-ol]
- IC50 [1, 9]: > 50 µM
- IC50 [1, 10]: > 50 µM
- IC50 [2]: > 50 µM
- GI50 (MDA-MB231 cells; [11]): 9.7 ± 1 µM
- GI50 (PC-3 cells; [12]): > 50 µM
- GI50 (2008 cells; [13]): 22 ± 5 µM

SMILES: COc1ccc(/C=C\CC/C=C/C=C(\C)CCC(O)c2ccco2)c(OC)c1 (stereo not shown) [Compound 19AR1]
- Percent Colchicine Binding Inhibition (CBI), 1 μM [1]: −4.6 ± 8.5%
- Percent Colchicine Binding Inhibition (CBI), 5 μM [1]: −2.2 ± 8.2%
- Percent Colchicine Binding Inhibition (CBI), 50 μM [1]: 13.2 ± 12.7%
- Percent Tubulin Polymerization Inhibition (TPI), 5 μM [2]: 81.7%
- GI50 (MDA-MB231 cells; [3]): 3.26 ± 6.13 µM
- GI50 (MDA-MB231 cells; [4]): 26.8 ± 0.9 µM
- GI50 (PC-3 cells; [5]): > 50 µM
- GI50 (PC-3 cells; [6]): > 50 µM
- GI50 (2008 cells; [7]): 19.1 ± 3.1 µM
- GI50 (2008 cells; [8]): 20.2 ± 2 µM

SMILES: COc1cc(C=NOCC2CC2CCC(C)c2cccs2)cc(OC)c1OC (stereo not shown) [JRoxime3]
- % CBI 5 μM, (30° C.) [1]: (−10 ± 10) %
- % CBI 5 μM, 37° C. [1]: −30 ± 6%
- % CBI 50 μM, (30° C.) [1]: (18 ± 6) %
- % CBI 50 μM, 37° C. [1]: −30 ± 7%
- % TPI 5 μM [2]: 3%
- GI50 (MDA-MB231 cells; [14]): > 50 µM
- GI50 (MDA-MB231 cells; [15]): > 50 µM
- GI50 (PC-3 cells; [16]): > 50 µM
- GI50 (PC-3 cells; [17]): > 50 µM
- GI50 (2008 cells; [18]): > 50 µM
- GI50 (2008 cells; [19]): > 50 µM
